Experiments:
[1] = tested on: IL-2 production; details: in vitro; cited from earlier work
[2] = tested on: lymphocyte; details: in vitro; cited from earlier work
[3] = tested on: DSS-induced colitis; test: Dextran sulfate sodium induced colitis: mouse model of inflammatory bowel disease; assay type: in vivo, Swiss Webster mice; details: for Mean colon length CM ± SEM / Mean weight ± SEM, Day 0 / % weight change ± SEM, Day 8 / Mean weight ± SEM, Day 8 / % weight change ± SEM, Day 9 / Mean weight ± SEM, Day 9 / % weight change ± SEM, Day 10 / Mean weight ± SEM, Day 10 / Mean DAI* ± SEM / inhibition at 16 mg/kg / inhibition at 32 mg/kg / inhibition at 64 mg/kg / % of normal length: DSS 5%; for Mean DAI ± SEM: DSS 5% in tap water; for Mean DAI* ± SEM: DAI without weight loss parameter; for inhibition at 16 mg/kg / inhibition at 32 mg/kg / inhibition at 64 mg/kg: Mus musculus, read-out: Colon shortening inhib. %; for % of normal length: colon length
Experimental: In this model of colitis, an acute inflammation of the colon was produced by administration of dextran sulfate sodium (DSS) as a 5% solution in tap water. This colitis was characterized by histological events and an influx of neutrophils, macrophages and mediators of inflammation similar to those observed with human inflammatory bowel diseases. […] The following study was conducted in accordance with protocols of Okayasu et al., Gastroenterology, 98:694-702, 1990.
One hundred ten test animals (female, 6 week old Swiss Webster mice, 18-30 g) were divided into ten groups, selected to eliminate any statistical differences in mean group weight.
Each animal was dosed daily (IP) with either a test substance or vehicle, starting on Day 0. Beginning on Day 1, acute colon inflammation was induced by the administration ad libitum in drinking water of dextran sulfate sodium (DSS) as a 5% solution in tap water (10 mL/mouse/day for 5-6 days), with no other fluid source for animals in the DSS arm of the study. Filtered tap water was available ad libitum except for animals receiving 5% DSS as the sole source of fluid. After four days, signs of acute disease occured with the loss of weight, diarrhea and bloody stools. Histological changes included initial shortening of the crypts, then areas of separation of the crypts and the muscularis mucosae in the absence of destructive inflammatory filtrate. After five days, pathological changes became confluent with the appearance of erosions and early hyperplastic epithelium. Inflammation scores were high with neutrophils, lymphocytes, and plasma cells in the lamina propria but sparing the epithelium.
Test compounds were administered intraperitoneally (IP). Test compounds given during this period were evaluated for prophylactic activity and test compounds given after the disease state was established were evaluated for therapeutic activity.
Test animals were weighed daily from Day 0 to Day 8, or until completion of the study. The total duration of the study with DSS arm of the study was varied depending on the time progress of colitis. The condition of the test animals and consistency of stools was noted.
At the conclusion of the study, test animals were euthanized (CO2), a midline incision was made and a stool sample was obtained. The sample was placed on a slide and tested for occult blood (Quic-Cult™, Laboratory Diagnostics Co., Morganville, N.J.). Occult blood was determined by placing two drops of the reagent onto the sample and observing any color change. Occult blood presence was graded using a scoring protocol assigning a score of 0 for no color; 1 for a very light blue color (+/−) forming in >30 seconds; 2 for a blue color developing in 30 seconds or more (+); 3 for a change in color occurring in less than 30 seconds (++); and 4 for gross blood observable on the slide. The colon was gently stretched and the length from the colon-cecal junction to the end of the distal rectum was measured to the nearest 0.1 cm.
The scores for each test animal were added and then divided by three to give a DAI score for each animal.

[4] = tested on: central BZ receptors; details: cited from earlier work
[5] = molecular target: peripheral BZ receptors (Homo sapiens, UniProt P30536); details: cited from earlier work
Sequence of peripheral BZ receptors (P30536 whole entry): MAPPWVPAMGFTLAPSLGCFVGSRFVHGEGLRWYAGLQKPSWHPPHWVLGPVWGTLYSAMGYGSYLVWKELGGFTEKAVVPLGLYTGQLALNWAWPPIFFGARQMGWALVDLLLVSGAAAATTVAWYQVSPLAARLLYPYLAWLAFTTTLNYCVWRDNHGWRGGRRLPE

Row | SMILES | Mean colon length CM ± SEM ([3]; 16 mg/kg IP daily) [CM] | Mean DAI ± SEM ([3]; 16 mg/kg IP daily) | Mean weight ± SEM, Day 0 ([3]; 16 mg/kg IP daily) [g] | % weight change ± SEM, Day 8 ([3]; 16 mg/kg IP daily) [%] | Mean weight ± SEM, Day 8 ([3]; 16 mg/kg IP daily) [g] | % weight change ± SEM, Day 9 ([3]; 16 mg/kg IP daily) [%] | Mean weight ± SEM, Day 9 ([3]; 16 mg/kg IP daily) [g] | % weight change ± SEM, Day 10 ([3]; 16 mg/kg IP daily) [%] | Mean weight ± SEM, Day 10 ([3]; 16 mg/kg IP daily) [g] | Mean colon length CM ± SEM ([3]; 32 mg/kg IP daily) [CM] | Mean DAI ± SEM ([3]; 32 mg/kg IP daily) | Mean weight ± SEM, Day 0 ([3]; 32 mg/kg IP daily) [g] | % weight change ± SEM, Day 8 ([3]; 32 mg/kg IP daily) [%] | Mean weight ± SEM, Day 8 ([3]; 32 mg/kg IP daily) [g] | % weight change ± SEM, Day 9 ([3]; 32 mg/kg IP daily) [%] | Mean weight ± SEM, Day 9 ([3]; 32 mg/kg IP daily) [g] | % weight change ± SEM, Day 10 ([3]; 32 mg/kg IP daily) [%] | Mean weight ± SEM, Day 10 ([3]; 32 mg/kg IP daily) [g] | Mean colon length CM ± SEM ([3]; 64 mg/kg IP daily) [CM] | Mean DAI ± SEM ([3]; 64 mg/kg IP daily) | also measured
1 | CCC1C(C)=NN=C(c2ccc(OC)c(OC)c2)c2cc(OC)c(OC)cc21 (racemic) [Racemic tofisopam, Racemic-1-(3,4-dimethoxyphenyl)-4-methyl-5-ethyl-7,8-dimethoxy-5H-2,3-benzodiazepine] | 8.2 ± 0.32 | 2.59 ± 0.27 | 25.9 ± 0.4 | 3.1 ± 1.5 | 25.1 ± 0.6 | 7.4 ± 2.5 | 24.0 ± 0.8 | 13.3 ± 3.1 | 22.5 ± 1.0 | 8.3 ± 0.11 | 2.37 ± 0.33 | 26.1 ± 0.4 | 1.8 ± 1.5 | 25.6 ± 0.4 | 5.3 ± 2.0 | 24.7 ± 0.6 | 8.0 ± 2.4 | 24.0 ± 0.7 | 8.2 ± 0.18 | 2.87 ± 0.31 | IL-2 production [1]: enhances; Mitogen-induced lymphocyte proliferation [2]: enhances; Mean weight ± SEM, Day 0 ([3]; 64 mg/kg IP daily): 25.8 ± 0.3 g; % weight change ± SEM, Day 8 ([3]; 64 mg/kg IP daily): 1.2 ± 2.1%; Mean weight ± SEM, Day 8 ([3]; 64 mg/kg IP daily): 25.5 ± 0.7 g; % weight change ± SEM, Day 9 ([3]; 64 mg/kg IP daily): 5.1 ± 2.5%; Mean weight ± SEM, Day 9 ([3]; 64 mg/kg IP daily): 24.5 ± 0.8 g; % weight change ± SEM, Day 10 ([3]; 64 mg/kg IP daily): 8.9 ± 3.1%; Mean weight ± SEM, Day 10 ([3]; 64 mg/kg IP daily): 23.5 ± 0.9 g; Mean DAI* ± SEM ([3]; 16 mg/kg IP daily): 2.61 ± 0.30; Mean DAI* ± SEM ([3]; 32 mg/kg IP daily): 2.65 ± 0.28; Mean DAI* ± SEM ([3]; 64 mg/kg IP daily): 3.25 ± 0.26; inhibition at 16 mg/kg ([3]; 16 mg/kg IP daily): 7%; inhibition at 32 mg/kg ([3]; 32 mg/kg IP daily): 9%; inhibition at 64 mg/kg ([3]; 64 mg/kg IP daily): 7%; % of normal length ([3]; 16 mg/kg IP daily): 65.4%; % of normal length ([3]; 32 mg/kg IP daily): 66.7%; % of normal length ([3]; 64 mg/kg IP daily): 65.5%; Interaction with central BZ receptors [4]: does not interact; Binding to peripheral BZ receptors [5]: binds only weakly
2 | CC[C@H]1C(C)=NN=C(c2ccc(OC)c(OC)c2)c2cc(OC)c(OC)cc21 [(R)-tofisopam, (R)-1-(3,4-dimethoxyphenyl)-4-methyl-5-ethyl-7,8-dimethoxy-5H-2,3-benzodiazepine] | 9.0 ± 0.28 | 2.22 ± 0.34 | 26.1 ± 0.5 | 0.0 ± 1.4 | 26.1 ± 0.6 | 3.3 ± 1.8 | 25.2 ± 0.6 | 5.4 ± 3.4 | 24.7 ± 1.0 | 8.9 ± 0.41 | 2.33 ± 0.28 | 25.0 ± 0.4 | 0.8 ± 1.6 | 26.2 ± 0.4 | 1.9 ± 2.1 | 25.5 ± 0.6 | 4.4 ± 2.1 | 24.6 ± 0.6 | 9.8 ± 0.35 | 1.73 ± 0.27^1 | Protection from the LTB4-mediated inflammatory responses to DSS-induced colitis ([3]; 64 mg per kg, based on colon length and DAI): significant protection; Mean weight ± SEM, Day 0 ([3]; 64 mg/kg IP daily): 26.2 ± 0.5 g; % weight change ± SEM, Day 8 ([3]; 64 mg/kg IP daily): 0.1 ± 1.9%; Mean weight ± SEM, Day 8 ([3]; 64 mg/kg IP daily): 26.2 ± 0.5 g; % weight change ± SEM, Day 9 ([3]; 64 mg/kg IP daily): 2.9 ± 1.9%; Mean weight ± SEM, Day 9 ([3]; 64 mg/kg IP daily): 25.4 ± 0.5 g; % weight change ± SEM, Day 10 ([3]; 64 mg/kg IP daily): 2.8 ± 2.5%; Mean weight ± SEM, Day 10 ([3]; 64 mg/kg IP daily): 25.4 ± 0.5 g; Mean DAI* ± SEM ([3]; 16 mg/kg IP daily): 2.61 ± 0.37; Mean DAI* ± SEM ([3]; 32 mg/kg IP daily): 2.75 ± 0.26; Mean DAI* ± SEM ([3]; 64 mg/kg IP daily): 2.20 ± 0.26^1; inhibition at 16 mg/kg ([3]; 16 mg/kg IP daily): 24%; inhibition at 32 mg/kg ([3]; 32 mg/kg IP daily): 22%; inhibition at 64 mg/kg ([3]; 64 mg/kg IP daily): 41%; % of normal length ([3]; 16 mg/kg IP daily): 72.4%; % of normal length ([3]; 32 mg/kg IP daily): 71.3%; % of normal length ([3]; 64 mg/kg IP daily): 78.5%
3 | CC[C@@H]1C(C)=NN=C(c2ccc(OC)c(OC)c2)c2cc(OC)c(OC)cc21 [(S)-tofisopam, (S)-1-(3,4-dimethoxyphenyl)-4-methyl-5-ethyl-7,8-dimethoxy-5H-2,3-benzodiazepine] | 8.4 ± 0.19 | 2.37 ± 0.24 | 26.0 ± 0.4 | 0.0 ± 1.5 | 26.0 ± 0.5 | 1.5 ± 1.5 | 25.6 ± 0.5 | 5.4 ± 1.6 | 24.6 ± 0.6 | 8.1 ± 0.19 | 3.07 ± 0.25 | 25.9 ± 0.4 | 3.0 ± 0.6 | 25.1 ± 0.6 | 4.9 ± 2.4 | 24.6 ± 0.6 | 10.4 ± 3.2 | 23.2 ± 0.9 | 8.2 ± 0.20 | 2.78 ± 0.27 | Mean weight ± SEM, Day 0 ([3]; 64 mg/kg IP daily): 25.9 ± 0.4 g; % weight change ± SEM, Day 8 ([3]; 64 mg/kg IP daily): 1.2 ± 1.5%; Mean weight ± SEM, Day 8 ([3]; 64 mg/kg IP daily): 25.8 ± 0.6 g; % weight change ± SEM, Day 9 ([3]; 64 mg/kg IP daily): 6.9 ± 1.8%; Mean weight ± SEM, Day 9 ([3]; 64 mg/kg IP daily): 24.1 ± 0.5 g; % weight change ± SEM, Day 10 ([3]; 64 mg/kg IP daily): 10.4 ± 1.7%; Mean weight ± SEM, Day 10 ([3]; 64 mg/kg IP daily): 23.2 ± 0.6 g; Mean DAI* ± SEM ([3]; 16 mg/kg IP daily): 2.85 ± 0.18; Mean DAI* ± SEM ([3]; 32 mg/kg IP daily): 3.60 ± 0.30; Mean DAI* ± SEM ([3]; 64 mg/kg IP daily): 2.94 ± 0.24; inhibition at 16 mg/kg ([3]; 16 mg/kg IP daily): 11%; inhibition at 32 mg/kg ([3]; 32 mg/kg IP daily): 4%; inhibition at 64 mg/kg ([3]; 64 mg/kg IP daily): 7%; % of normal length ([3]; 16 mg/kg IP daily): 67.3%; % of normal length ([3]; 32 mg/kg IP daily): 64.9%; % of normal length ([3]; 64 mg/kg IP daily): 65.4%

Reference: patent US6864251B2, “Treatment of LTB4-mediated inflammatory disorders with optically-pure (R)-2,3-benzodiazepines” (Vela Pharmaceuticals, Inc., priority 2002, dated 2005)
